# In patent publication US6207648A, “Methods of using cytochrome P450 reductase for the enhancement of P450-based anti-cancer gene therapy” (priority 1998, dated 2001):
# Entries after “also recorded” stand apart in the source; their conditions may differ. Where two headings read alike, the source gives them in different places.
# Legend:
# [1] = test system: 9L gliosarcoma cells (parental, CYP2B1+, CYP2B1+ RED+++); assay: In vitro growth inhibition assay, XTT (Example 1); conditions: for increase of cell survival ratio in CYP2B1+ RED+++ cells / rescue of CYP2B1+ and CYP2B1+ RED+++ cells from CPA toxicity: 1 mM CPA, AADP 0.5 mM or DPI 5 μM; for rescue of CYP2B1+ and CYP2B1+ RED+++ cells from CPA toxicity: FIG. 4
# Description: Cells (1000/well) seeded in 96-well plates were treated with the indicated concentrations of CPA for 4 days. Corresponding controls received no drug treatment. Cell survival was determined by an XTT calorimetric assay. Data (mean for triplicate samples) were expressed as growth ratio (%), i. e., cell number (XTT activity) in drug treated plates as a percentage of the corresponding drug-free controls.
# Cells (500/well) seeded in 96-well plates were treated with 1 mM cyclophosphamide in the absence or presence of the RED inhibitors AADP (0.5 mM) or DPI (5 μM). Corresponding controls received no drug treatment. Cell survival was determined by an XTT colorimetric assay. Data (mean for triplicate samples) are expressed as growth ratio (%), i.e., cell number (XTT activity) in drug treated plates as a percentage of the corresponding drug-free controls and are representative of 2-3 independent experiments. AADP and DPI were added to the cells 30 minutes prior to CPA treatment.
# (B) Growth inhibition assay--Cells (1000/well) seeded in 96 well plates were treated with the indicated concentrations of CPA for 4-5 days. Corresponding controls received no drug treatment. Cell survival was determined by an XTT colorimetric assay, a cell proliferation assay that measures mitochondrial dehydrogenase activity of viable cells (Scudiero, D. A., et al., Cancer Res. 48:4827-4833 (1988)).
# 9L/wt cells = assay: Intrinsic chemosensitivity of 9L/wt cells to chemically activated CPA and IFA; format: cell-based, rat
# Description: 9L/wt cells seeded at 2000 cells/ well in 48-well plates were treated for 3-4 hours with increasing concentrations of 4-hydroperoxy-CPA or 4-hydroxyperoxy-IFA (0 to 100 μM). Cells were then incubated in fresh drug-free media and allowed to grow for 4 days. Cell growth as a percent of drug-free controls was then determined by crystal violet staining. Data shown are mean±range for duplicate samples.
# Briefly, culture dishes were washed once with phosphate buffered saline (PBS), stained for 10 minutes with crystal violet (1.25 g crystal violet (Sigma) dissolved in 500 ml containing 50 ml of 37% formaldehyde and 450 ml methanol), and then washed with PBS, twice for 20 minutes per wash. Absorbance values were measured in an SLT Spectra microtiter plate reader using a 595 nm filter. Background absorbance determined from wells containing culture media alone was subtracted from each value.
# 9L tumor cells = assay: Control experiment: effect of semicarbazide on cell viability; format: cell-based, rat; conditions: 5 mM, up to 48 hours
# [2] = test system: 9L gliosarcoma cells (parental, CYP2B1+, CYP2B1+ RED+++); assay: In vitro colony formation cytotoxicity assay (Example 1); format: cell-based, rat; conditions: FIG. 3A
# Description: FIGS. 2A and 2C depict the results of a colony formation cytotoxicity assay.
# FIG. 3A depicts results from a colony formation cytotoxicity assay. […] The survival fraction is expressed as the number of colonies in each treatment group compared to the untreated control.
# (§1) Corresponding controls received no drug treatment.
# P450 2C9 = conditions: cited from earlier work
# CYP2C9 = conditions: subset of cancer patients; cited from earlier work
# [3] = test system: 9L/pBabe, 9L/2B6, 9L/hRED and 9L/2B6/hRED gliosarcoma cells
# Description: Cells were seeded at 4000 cells/well in 48-well plates and treated with increasing concentrations of CPA for 4 days. Cell growth in comparison to drug-free controls was determined by crystal violet staining and is presented as mean±SD for n=3 replicates.
# FIG. 21 is a graph depicting the cytotoxic effects of the bioreductive drug TPZ toward 9L/pBabe control cells and 9L cells transduced with retroviruses encoding human RED and/or P450 2B6 under normoxic culture conditions. Cells were seeded at 4000 cells/well in 48-well plates and treated with increasing concentrations of TPZ for 4 days. Cell growth in comparison to drug-free controls was determined by crystal violet staining and is presented as mean±SD for n=3 replicates.
# FIG. 22 is a graph depicting the cytotoxicity of increasing concentrations of TPZ under hypoxic conditions (1% O2) toward 9L tumor cells transduced with retroviruses encoding P450 2B6 and/or human RED. 9L/pBabe cells served as controls. Cells were seeded at 4000 cells/well in 48-well plates and treated with increasing concentrations of TPZ for 4 days. Cell growth in comparison to drug-free controls was determined by crystal violet staining and is presented as mean±SD for n=3 replicates.
# FIGS. 24A, 24B and 24C are graphs depicting the cytotoxic effects of TPZ (5 or 10 μM, as indicated) in combination with increasing concentrations of CPA under normoxic culture conditions (19.6% O2, 5% CO2). The data shown were obtained using 9L/2B6/hRED cells (FIG. 24A), 9L/hRED cells (FIG. 24B) and 9L/pBabe (control) cells (FIG. 24C). Data were compared to the cytotoxicity of increasing concentrations of CPA alone (i. e., in the absence of TPZ) measured using the same pools of tumor cells. Cells were seeded at 4000 cells/well in 48-well plates and then treated with the indicated drug concentrations for 4 days. Cell growth in comparison to drug-free controls (i.e., in the absence of CPA and TPZ) was determined by crystal violet staining and is presented as mean±SD for n=3 replicates.
# FIGS. 25A, 25B and 25C are graphs depicting the cytotoxic effects of TPZ (0.5 or 1.5 μM, as indicated) in combination with increasing concentrations of CPA under hypoxic culture conditions (1% O2, 5% CO2). The data shown were obtained using 9L/2B6/hRED cells (FIG. 25A), 9L/hRED cells (FIG. 25B) and 9L/pBabe (control) cells (FIG. 25C). Data were compared to the cytotoxicity of increasing concentrations of CPA alone (i.e., in the absence of TPZ) measured using the same pools of tumor cells. Cells were seeded at 4000 cells/well in 48-well plates and then treated with the indicated drug concentrations for 4 days. Cell growth in comparison to drug-free controls (i.e., in the absence of CPA and TPZ) was determined by crystal violet staining and is presented as mean±SD for n=3 replicates.
# Cytotoxicity assays: To evaluate the chemosensitivity of the P450- and P450/RED-expressing 9L tumor cells, cells were plated in triplicate at 4000 cells/well of a 48-well plate 18-24 hours prior to drug treatment. Cells were then treated with drugs (0 to 1 mM CPA or 0 to 50 μM TPZ, as indicated in each experiment) and placed in a tissue culture incubator maintained under hypoxic conditions (1% O2, 5% CO2, 94% N2) or under normoxic conditions (19.6% O2, 5% CO2, 75.4% N2) for a period of 4 days. 9L/pBabe cells, which were transduced with the empty retroviral plasmid pBabe-puro (see, Example 2), served as controls. Cells remaining after this time were quantitated using a crystal violet/alcohol-extraction assay, as described under Example 2. Data are presented as cell number relative to drug-free controls, mean±SD values for triplicate samples, unless indicated otherwise.
# [4] = test system: rodent and human tumor xenograft models; conditions: cited from earlier work
# [5] = test system: 9L, 9L/2B1 and 9L/2B1/RED cells; assay: Adriamycin growth inhibition assay; format: cell-based, rat
# Description: The indicated 9L, 9L/2B1 and 9L/2B1/RED clonal cell lines, described in Example 1, were treated with Adriamycin for 2 days at the indicated drug concentrations. Cytotoxicity was measured after 5 days continuous culture using a growth inhibition assay, as described under FIG. 2B of Example 1. […] Data shown are averages of duplicates.
# as §1
# 9L gliosarcoma cell lines stably expressing rat P450 2B1 and rat RED: The following rat 9L gliosarcoma transfectants were those already described in Example 1: P3 and P17, which stably express P450 gene CYP2B1; 9L-lacZ, which stably expresses the E. coli β-galactosidase gene; R26, which stably expresses rat RED but not P450; and PR1, PR7, PR11, which stably express rat P450 2B1 and rat RED.
# human cytochrome P450s = conditions: cited from earlier work
# [6] = in vivo; cited from earlier work
# 9L/pBabe bystander cells = assay: Bystander cytotoxicity/co-culture with cell culture inserts; format: cell-based, rat; conditions: Rattus norvegicus, 96 h, 9L/2B6/reductase, 0.67 mM
# Description: FIGS. 18A and 18B are graphs depicting the bystander cytotoxicity of 9L/2B6/reductase and 9L/2B6 cells. In FIG. 18A, bystander cytotoxicity of 9L/2B6/reductase cells is compared to that of 9L/2B6 cells. In both cases, 9L/pBabe served as the bystander cells. 9L/pBabe cells were plated in duplicate at 10^5 cells/well of a 6-well plate (lower chamber). 9L/2B6/reductase cells or 9L/2B6 cells were plated in 25 mm cell culture inserts (upper chamber) at concentrations ranging from 10^4 to 6×10^5 cells, corresponding to ratios of 0.1 to 6 relative to the bystander 9L/pBabe cells growing in the lower chamber, as shown on the x-axis. Cells were incubated in a total volume of 3 ml Dulbecco's minimal essential medium (DMEM), 10% FBS, containing 1 mM CPA, final CPA concentration.
# The experimental design was the same as in FIG. 18A, except that the final drug concentration was 0.67 mM. Data shown for both panels correspond to the survival of 9L/pBabe bystander cells in the lower chamber.
# Bystander cytotoxicity/co-culture experiments: 9L/pBabe cells were plated in duplicate at 10^5 cells/well in the lower chamber of a 6-well Falcon co-culture plate (30 mm diameter wells) (Falcon 3046). 9L/2B6/reductase cells were plated in 25 mm cell culture inserts (0.4 μm pore size; Falcon 3090), at dilutions ranging from 0. 1 to 6 times the number of 9L/pBabe cells plated in the lower chamber. […] Relative cell numbers were quantitated 4 days later by crystal violet staining.
compound,measurement,setting,value
"c1ccc2c(c1)[I+]c1ccccc1-2 [DPI, diphenyleneiodonium chloride]",increase of cell survival ratio in CYP2B1+ RED+++ cells,[1],3-5 fold
same,rescue of CYP2B1+ and CYP2B1+ RED+++ cells from CPA toxicity,[1],partially rescued
same,inhibition at 5 µM,"[1]; Rattus norvegicus, read-out: growth inhibition in absence of CPA",~20%
O=P1(N(CCCl)CCCl)NC(OO)CCO1 (stereo not shown) [4-hydroperoxy-CPA],sensitivity of 9L cells to activated CPA compared to activated IFA,"9L/wt cells; 0 to 100 μM, 3-4 h, 4 days regrowth",approximately 3 fold
same,intrinsic sensitivity of 9L cells to activated CPA compared to activated IFA,9L/wt cells; FIG. 16,greater intrinsic sensitivity
NNC(N)=O [semicarbazide],effect on cell viability,9L tumor cells,no detectable effect on cell viability
CC(C)(C(=O)c1cccnc1)c1cccnc1 [metyrapone],blocking of CPA cytotoxicity toward CYP2B1+ cells,"[1]; 10 μM and higher, P3 and P17, FIG. 3",significantly blocked the cytotoxic effects
same,inhibition of CPA cytotoxicity in RED-overexpressing CYP2B1+ cells,"[1]; 10 μM, FIG. 3",only slightly inhibited the cytotoxic effect
same,blocking of CPA cytotoxicity toward CYP2B1+ cells,"[2]; 10 μM and higher, P3 and P17",significantly blocked the cytotoxic effects
same,inhibition of CPA cytotoxicity in RED-overexpressing CYP2B1+ cells,[2]; 10 μM,only slightly inhibited the cytotoxic effect
"Nc1ccc[n+]([C@@H]2O[C@H](COP(=O)([O-])OP(=O)(O)OC[C@H]3O[C@@H](n4cnc5c(N)ncnc54)[C@H](O)[C@@H]3O)[C@@H](O)[C@H]2O)c1 [AADP, 3-aminopyridine adenine dinucleotide]",toxicity to the cells in absence of CPA,[1]; 0.5 mM,no toxicity to the cells
same,increase of cell survival ratio in CYP2B1+ RED+++ cells,[1],2-3 fold
same,rescue of CYP2B1+ and CYP2B1+ RED+++ cells from CPA toxicity,[1],partially rescued
Nc1ccc(S(=O)(=O)Nc2ccnn2-c2ccccc2)cc1 [sulfaphenazole],inhibition of P450 2C9-catalyzed human liver CPA activation,P450 2C9,inhibits P450 2C9-catalyzed human liver CPA activation
same,effect on elimination of CPA,CYP2C9,slows the elimination of CPA
"Nc1n[n+]([O-])c2ccccc2[n+]1[O-] [TPZ, 3-amino-1,2,4-benzotriazine-1,4-di-N-oxide]",effect of P450 2B6 and RED on TPZ cytotoxicity,[3],substantial increase in cytotoxicity
same,effect of P450 2B6 expression alone on TPZ cytotoxicity,[3],no effect on the cytotoxicity
same,effect of P450 2B6 on TPZ cytotoxicity,[3],Some enhanced cytotoxicity
same,effect of RED gene transfer on TPZ sensitivity,[3],chemosensitized 9L tumor cells
same,"effect of RED gene transfer, with or without P450 2B6, on TPZ cytotoxicity",[3],increase in TPZ cytotoxicity
same,intrinsic cytotoxicity under hypoxic vs normoxic conditions,[3],intrinsically more cytotoxic
same,effect of TPZ on activity of CPA and other cancer chemotherapeutics,[4]; in vivo,enhance the activity of CPA
same,bone marrow toxicity with TPZ combination,[4]; with CPA and other chemotherapeutics,corresponding increase in bone marrow toxicity
"COc1cccc2c1C(=O)c1c(O)c3c(c(O)c1C2=O)C[C@@](O)(C(=O)CO)C[C@@H]3O[C@H]1C[C@H](N)[C@H](O)[C@H](C)O1 [Adriamycin, doxorubicin]",toxicity to 9L and 9L/lacZ cells without P450 metabolism,"[5]; 100 nM, 2 days",toxic to 9L cells
same,effect of co-expression of RED with P450 2B1 on Adriamycin cytotoxicity,[5]; PR11 and PR7,large enhancement in Adriamycin cytotoxicity; also recorded: Enhanced cytotoxicity
same,chemosensitization to Adriamycin in line PR1,[5]; RED overexpression approximately 2-fold,more modest chemosensitization
same,effect of RED overexpression alone on Adriamycin cytotoxicity,[5]; line R26,did not enhance the cytotoxicity
"Clc1cnc(Oc2ccc(Oc3ncc(Cl)cc3Cl)cc2)c(Cl)c1 [TCPOBOP, 1,4-bis-2-(3,5-dichloropyridyloxybenzene)]",induction of human cytochrome P450s in colon and breast tumors,human cytochrome P450s,profound inducer
"O=P1(NCCCl)OCCCN1CCCl (stereo not shown) [IFA, ifosfamide]",side effects of systemic distribution of drug and alkylating metabolites,[6],"cardiotoxicity, renal toxicity, marrow suppression, and neurotoxoxicity"
same,cytotoxicity at 670 µM,"9L/pBabe bystander cells; cell ratio 6:1, read-out: maximum bystander cytotoxicity",~50%
same,cytotoxicity at 670 µM,"9L/pBabe bystander cells; cell ratios up to 3:1, read-out: bystander cytotoxicity",≤ 25%
